Test results published in paper PMC11173422, “Substitution-Induced Mechanistic Switching in SNAr-Warheads for Cysteine Proteases” (Molecules, 2024).
Where two headings read alike, the source gives them in different places.

Key:
Rhodesain (TbCatL) = target: T1, Rhodesain (TbCatL) (Trypanosoma brucei rhodesiense, UniProt Q95PM0); experiment: Fluorimetric rhodesain inhibition assay with Z-Phe-Arg-AMC; type: biochemical; conditions: for Inhibition of rhodesain, in words: SAR discussion; for Mode of inhibition (time dependency, reversibility): from progress curves
T1 construct: stably transformed with the rhodesain ΔC gene cloned into the pPICZαA vector; made in house; host or cells: Pichia pastoris X-33 (pPICZαA, secreted into the culture supernatant)
T1 sequence (Q95PM0 entry or part of it): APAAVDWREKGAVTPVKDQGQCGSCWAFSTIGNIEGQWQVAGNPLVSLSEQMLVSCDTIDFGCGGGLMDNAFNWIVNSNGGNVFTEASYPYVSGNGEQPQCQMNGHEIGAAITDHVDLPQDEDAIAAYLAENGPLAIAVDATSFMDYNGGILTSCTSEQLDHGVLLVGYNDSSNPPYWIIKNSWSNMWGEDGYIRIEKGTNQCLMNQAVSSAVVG
Experimental: Inhibition of rhodesain was assessed using Z-Phe-Arg-AMC as a fluorogenic substrate. IC50 or KI^app were determined depending on the time dependency of the progress curves. Because a competitive mode of inhibition can be assumed, Ki (for reversible inhibition) and KI (for irreversible inhibition) were calculated using the Cheng–Prusoff equation [30].
Fluorimetric enzyme assays were performed as described in the literature. Information regarding buffers, concentrations, the employed substrate, as well as data analysis for linear and non-linear regression is given in the SI. In short, the cleavage of a fluorogenic substrate by the protease of interest is detected in the presence of different concentrations of inhibitors. […] For the irreversible compound with non-linear regression, the kinetic kinact value was also plotted, from which k2nd was calculated.
To investigate this influence, its inhibition of […]
nucleophilic reducing agent for enzyme activation).
Reversibility assessment for time-dependent inhibitor 9
After this incubation period, the samples
Rhodesain, CatL, CatB Assays
Continuous fluorometric measurements with a Tecan Spark 10M reader in a 96 well plate format was used to evaluate activity. Rhodesain, HsCatB and HsCatL were diluted in their respective activation buffer prior to use. Rhodesain was incubated in this for 30–60 min prior to use. The enzyme of interest (5 µL) was incubated with the inhibitor in question (10 µL), and its specific substrate (5 µL) in the respective assay buffer. The fluorescence signal was measured every 30 s for 10 min at room temperature with the corresponding excitation/emission wavelengths (λex = 380 nm / λem = 460 nm). The final concentrations and buffer compositions are depicted in SI-Table S1. Inner-filter effect corrections were performed as described in literature if deviations >5% were detected.
SI-Table S1: Information on assay conditions. [E] = final enzyme concentration, [S] = final substrate concentration in well.
For the evaluation of 9 in absence of DTT (depicted in SI-Figure S5): 5 nM final rhodesain concentration that was activated before in presence of TCEP (alternative activation buffer: 5 mM DTT → 5 mM TCEP) […]
Time-independent behavior
For inhibitors that behaved time-independently during the measurements (i.e., F-t-diagrams show constant slope), IC50 values using defined dilution series for each compound were calculated with GraphPad PRISM by fitting the remaining enzymatic activity to a four parameter IC50 equation with Y [%] as the residual enzyme activity, Ymax as the maximum value of the dose response curve at inhibitor concentrations [I] = 0 µM, Ymin as the minimum value at high inhibitor concentrations and s as the Hill […]
y [%residual activity]=௬ౣ౗౮ ି௬ౣ౟౤ೞ + y୫୧୬ eq. 1
It is assumed that the inhibitors bind competitively in respect to the substrate. Due to the dependence of the IC50 value on the substrate affinity and concentration, the Ki values were calculated with the Cheng-Prusoff equation, using the final substrate concentration [S] and the Michaelis-Menten constant KM to […]
For inhibitors that behaved time-dependently during the measurements (i.e., F-t-diagrams show reducing slopes over time), KIapp and kinact values using defined dilution series for each compound were calculated

[1] = Stability towards general substitution reactions (water, DTT); type: physicochemical; conditions: NH4OAc buffer pH 5.5, with or without DTT; UV spectra and LCMS
Experimental: 0.1 inhibitor concentration
SI-Figure S1: (A) Absorption spectra of 2, 3 and 9 with different concentrations, visualizing a potential need for mathematical correction at high concentrations for nitroanilines. ( B) Experimental proof that mathematical correction of attenuation of AMC fluorescence is only necessary for inhibitor concentrations ≥10 µM. For 2 and 3 at 10 µM attenuation of fluorescence signal is 14 and 11 %, respectively. At concentrations relevant for IC50 evaluation, no relevant interference is detected.
Stability measurements towards general substitution reactions
2, 3 and 9 (from 20 mM stock solutions in DMSO) were diluted into NH4OAc buffer (pH 5.5) to final concentrations of 100 µM, 125 µM or 1 mM and incubated in buffer alone or in presence of as much DTT as present in the fluorimetric rhodesain assay and the MALDI-TOF experiment, respectively. This was recorded with absorption spectroscopy (results depicted in SI-Figure S2) on a Tecan Spark 10M plate reader in UV-transparent 96-well plates (Greiner UV-Star®, 655801, 200 µL volume per sample) or with LCMS (see “measurement setup for LCMS” as described under the method for PAMPA; results depicted […]
system at pH 5.5 over the course of the time necessary for the employed assays. There is a small difference detectable in reactivity of 3 with 5 mM DTT: a slight but time-dependent change in UV-spectrum was found where the maximum at 265 nm decreased in intensity, indicating a small degree of degradation […]
that is not observed with lower DTT concentration or with 2 at all. The formation takes place on a much larger timescale as the time for detection in the assays (minutes vs. hours) and is therefore irrelevant to the performed evaluations. […]
repeated LCMS analysis indicates the formation of the phenol (substitution of fluoride) over the course of hours. This also seems to happen in the DMSO stock solution to a small degree after some usage (explains the presence of phenol at 0 min). Accordingly, in presence of DTT, both the phenol and the thioether are detected by MS for this compound. […]

rhodesain [2] = target: T2, rhodesain (Trypanosoma brucei rhodesiense, UniProt Q95PM0); experiment: MALDI-TOF-MS (sinapinic acid matrix) adduct detection; type: binding; parameters: stably transformed with the rhodesain ΔC gene cloned into the pPICZαA vector; made in house; host or cells: Pichia pastoris X-33 (pPICZαA, secreted into the culture supernatant); conditions: 100 µM inhibitor, 10 µM rhodesain, acidic sinapinic acid matrix
T2 sequence (Q95PM0 entry or part of it): as above
Experimental: Using MALDI-TOF-MS, differentiation between non-covalent and covalent ligand-target complexes is possible if acidic matrices are used that interfere with ionic and dipole interactions (i.e., suppress non-covalent interactions).
Protein mass spectrometry was performed as described before, but also described in detail in the SI. In short, rhodesain was incubated with a surplus of inhibitor under conditions similar to those of the enzyme assays described above to enable complex formation. This sample was desalted and then incorporated into a sinapinic acid matrix, which was then subjected to mass spectrometry. Data analysis was performed using mMass.
Mass spectrometric experiments were performed as described before. Lyophilized rhodesain was first […]
manufacturer’s instructions.
Then, the mixtures were left in the fume hood for cocrystallization until dry.
TOF/TOF mass spectrometer (Bruker Daltonik GmbH, Bremen, Germany). The instrument is equipped […]
cropping from 22–27 kDa was performed.
Baseline was corrected with standard settings. […]

rhodesain [3] = target: T2, rhodesain; conditions: 1.5 h incubation (9: 400 µM; K11777: 500 nM), diluted 1:100, n = 2; uninhibited 0.68 ± 0.05 FU/s
Experimental: rhodesain was reassessed in DTT-free conditions (tris(2-carboxyethyl)phosphine = TCEP used as a non-
The reactivity towards water should not be seriously
To assess reversibility of the time-dependent inhibitor [4], and to therefore discriminate between slow-
reversible and irreversible inhibition, rhodesain was incubated with compound 9 for 1.5 h, at an inhibitor
concentration of 400 µM (7.5x KI) to enable the quantita tive progression of a covale nt irreversible reaction
if one is possible. The same incubation was performed with DMSO alone as a negative control and in
presence of 500 nM K11777 as a positive irreversible control. After this incubation period, the samples
were diluted 1:100 (to 4 µM of compound 9 (0.075x KI)) into assay buffer containing substrate to record
the degree of recovery of enzymatic activity over the course of 10 min.
Raw activity of rhodesain after dilution was

[4] = Aqueous solubility observed in PAMPA set-up; type: physicochemical; conditions: buffered aqueous solution pH 7.4, 5% DMSO
Experimental: acceptor (bottom) plate (Greiner, 655074). Measurement setup for direct spectroscopy consisted of UV- […]
sample volume, λ = 200–650 nm. […]
elution (0.7 mL/min). Injection volume was 100 µL. Areas of peaks in the chromatogram (detection-λ = 210 nm) were used to calculate the AUCs. Retention time and mass spectrum recorded in positive ionization mode were used to assign species. Analysis was performed using MestreNova. […]
donor plate. This was sealed (Greiner, 676070, Viewseal sealer). 400 µL of acceptor solution was applied to the acceptor plate. Incubation setup was assembled and left for 7 h. After this time, acceptor and reference solutions were analyzed.
The acceptor solutions of those were measured
P௔௣௣ = −(௏ವ ା௏ಲ )∗஺∗௧ eq. 6

[5] = Parallel artificial membrane permeability assay (PAMPA); conditions: pH 7.4
Experimental: An artificial membrane consisting of phosphatidylcholine dissolved in n-dodecane was employed to control equilibration between two connected aqueous compartments, of which one contained the compound of interest. This model for compound permeation through a cell membrane was incubated, and the resulting concentration in the acceptor compartment was quantified spectroscopically.
A general literature-known principle was used [11]. Propranolol hydrochloride was sourced from Changzou Yabang Pharmaceutical (Fagron GmbH & Co. KG). Candesartan cilexetil was sourced as a chemical reference standard from the EDQM (catalogue code Y0001388).
Incubation setup consisted of donor (top) plate (Sigma Aldrich, MAIPNTR10), 5 µL artificial membrane
(1 % (w/v) L-α-phosphatidyl choline, Sigma Aldrich P3556, in n-dodecane, Sigma Aldrich 8205430100),
transparent measurement plate (Greiner UV-Star®, 655801), Tecan Spark 10M® well plate reader, 200 µL

Compound	Ki (Rhodesain (TbCatL))	Inhibition of rhodesain, in words (Rhodesain (TbCatL))	further results
CC(C)C[C@H](NC(=O)[C@H](Cc1ccccc1)NC(=O)c1ccc(Cl)nc1Cl)C(=O)O [Compound 8]	30 µM	did not yield relevant inhibition	
O=C(O)[C@@H](Cc1ccccc1)NC(=O)[C@@H](CCc1ccccc1)Nc1cc(F)c([N+](=O)[O-])cc1[N+](=O)[O-] [Compound 18]	12 µM		
CC(C)C[C@H](NC(=O)[C@H](Cc1ccccc1)NC(=O)c1cccc([N+](=O)[O-])c1F)C(=O)O [Compound 10]	14 µM	ineffective	
CC(C)C[C@H](NC(=O)[C@H](Cc1ccccc1)Nc1cc(F)c([N+](=O)[O-])cc1[N+](=O)[O-])C(=O)O [Compound 3]	0.0019 ± 0.0001 µM		IC50 (Rhodesain (TbCatL)): 0.0245 ± 0.0017 µM; Mode of inhibition (time dependency, reversibility) (Rhodesain (TbCatL)): time-independent; Reactivity towards unspecific nucleophiles (water and DTT) [1]: no relevant tendency towards either side reaction; Adduct with rhodesain in MALDI-TOF-MS (rhodesain [2]): an adduct corresponding to the mass of the inhibitor was observed
C[C@H](Nc1cc(F)c([N+](=O)[O-])cc1[N+](=O)[O-])C(=O)N[C@@H](CCc1ccccc1)C(=O)O [Compound 13]	13 µM		
CC(C)C[C@H](NC(=O)[C@H](Cc1ccccc1)Nc1cc(F)ccc1[N+](=O)[O-])C(=O)O [Compound 5]	44 µM	did not result in inhibition	
CC(C)C[C@H](NC(=O)[C@H](Cc1ccccc1)Nc1cc(Cl)ncn1)C(=O)O [Compound 6]	102 µM	did not produce an active inhibitor	
CC(C)C[C@H](NC(=O)[C@H](Cc1ccccc1)NC(=O)Nc1ccc(F)c([N+](=O)[O-])c1)C(=O)O [Compound 7]	50 µM	did not produce an active inhibitor	
CC(C)C[C@H](NC(=O)[C@H](Cc1ccccc1)Nc1ccccc1[N+](=O)[O-])C(=O)O [Compound 1]	39 µM		
C[C@H](NC(=O)[C@H](CCc1ccccc1)Nc1cc(F)c([N+](=O)[O-])cc1[N+](=O)[O-])C(=O)O [Compound 16]	13 µM		
CN1CCN(C(=O)N[C@@H](Cc2ccccc2)C(=O)N[C@H](/C=C/S(=O)(=O)c2ccccc2)CCc2ccccc2)CC1 [Compound K11777, reference compound]			Activity of rhodesain after incubation and subsequent dilution (rhodesain [3]): −0.01 ±0.00 FU/s; Adduct with rhodesain in MALDI-TOF-MS (rhodesain [2]): showed the expected mass shift representative of covalent adduct formation
O=C(O)[C@H](CCc1ccccc1)NC(=O)[C@H](Cc1ccccc1)Nc1cc(F)c([N+](=O)[O-])cc1[N+](=O)[O-] [Compound 17]	6 µM		
CC(C)C[C@H](NC(=O)[C@H](Cc1ccccc1)Nc1ccc([N+](=O)[O-])c([N+](=O)[O-])c1)C(=O)OC(C)(C)C [Compound 20]			aqueous solubility [4]: poor aqueous solubility; Papp at 7 h, 100 µM [5]: 93 ± 7 nm/s
N-(5-fluoro-2,4-dinitrobenzoyl)-L-phenylalanyl-L-leucine [Compound 9]			Ki (Rhodesain (TbCatL); DTT-free conditions, TCEP for enzyme activation, read-out: KIapp): 200 µM; Ki (Rhodesain (TbCatL); KI, irreversible time-dependent inhibition, from KI^app by Cheng–Prusoff, read-out: Ki or KI): 53 µM; Mode of inhibition (time dependency, reversibility) (Rhodesain (TbCatL)): irreversible; Ki (Rhodesain (TbCatL); standard conditions with DTT, read-out: KIapp): 700 µM; Reactivity towards unspecific nucleophiles (water and DTT) [1]: relevant reactivity towards unspecific nucleophiles; Activity of rhodesain after incubation and subsequent dilution (rhodesain [3]): −0.01 ±0.00 FU/s; Adduct with rhodesain in MALDI-TOF-MS (rhodesain [2]): An adduct was also found for 9, albeit with a shift lower than the mass of the inhibitor
CC(C)C[C@H](NC(=O)[C@H](Cc1ccccc1)NC(=O)c1cc([N+](=O)[O-])c(Cl)cc1[N+](=O)[O-])C(=O)O [Compound 12]	25 µM		Mode of inhibition (time dependency, reversibility) (Rhodesain (TbCatL)): abolished the time-dependent mode of inhibition
C[C@@H](NC(=O)[C@@H](CCc1ccccc1)Nc1cc(F)c([N+](=O)[O-])cc1[N+](=O)[O-])C(=O)O [Compound 14, ((R)-2-((5-fluoro-2,4-dinitrophenyl)amino)-4-phenylbutanoyl)-D-alanine]	27 µM		
C[C@@H](Nc1cc(F)c([N+](=O)[O-])cc1[N+](=O)[O-])C(=O)N[C@H](CCc1ccccc1)C(=O)O [Compound 15]	22 µM		
CC(C)C[C@H](NC(=O)[C@H](Cc1ccccc1)Nc1ccc([N+](=O)[O-])c([N+](=O)[O-])c1)C(=O)O [Compound 2]	0.0028 ± 0.0002 µM		IC50 (Rhodesain (TbCatL)): 0.0364 ± 0.0023 µM; Mode of inhibition (time dependency, reversibility) (Rhodesain (TbCatL)): time-independent; Reactivity towards unspecific nucleophiles (water and DTT) [1]: no relevant tendency towards either side reaction; Adduct with rhodesain in MALDI-TOF-MS (rhodesain [2]): no adduct was found
CC(C)C[C@H](NC(=O)[C@H](Cc1ccccc1)NC(=O)c1cc([N+](=O)[O-])ccc1F)C(=O)O [Compound 11]	13 µM	ineffective	
CC(C)C[C@H](NC(=O)[C@H](Cc1ccccc1)Nc1ccc([N+](=O)[O-])cc1)C(=O)O [Compound 4]	17 µM		
